Measured values as given in US20240148723A1, “MYCOBACTERIUM TUBERCULOSIS COMPOSITIONS AND METHODS” (priority 2021, published 2024).
In brackets after ≈: the same amount, converted by molar mass.

Experiments:
M. tuberculosis = format: cell-based, Mycobacterium tuberculosis; conditions: pH 6.8
M. tuberculosis H37Ra = experiment: microbe, parasite or virus in culture; format: cell-based, Mycobacterium tuberculosis; conditions: Mycobacterium tuberculosis, H37RA, pH 6.8

Cc1nc(C(=O)N=C(N)N)c(N)nc1-c1ccccc1 [compound 614911]
MIC in the media 7H9 (M. tuberculosis): ≥ 108.12 µg/mL | MIC in the media L-Ala (M. tuberculosis): 13.52 µg/mL (≈ 50 µM) | MIC in the media SBA (M. tuberculosis): 27.03 µg/mL (≈ 100 µM) | MIC in the media SLac (M. tuberculosis): 27.03 µg/mL (≈ 100 µM)

Cl.O=C(c1ccc(OCCN2CCCCC2)cc1)c1c(-c2ccc(O)cc2)sc2cc(O)ccc12 [compound 747974]
MIC in the media 7H9 (M. tuberculosis): ≥ 47.36 µg/mL | MIC in the media L-Ala (M. tuberculosis): 2.96 µg/mL | MIC in the media SBA (M. tuberculosis): 2.96 µg/mL | MIC in the media SLac (M. tuberculosis): 2.96 µg/mL

O=C(c1ccc(F)c(F)c1Nc1ccc(I)cc1F)N1CC(O)(C2CCCCN2)C1 (centres unmarked) [compound 768068]
MIC in the media 7H9 (M. tuberculosis): ≥ 26.57 µg/mL | MIC in the media L-Ala (M. tuberculosis): 13.28 µg/mL (≈ 25 µM) | MIC in the media SBA (M. tuberculosis): 3.32 µg/mL (≈ 6.25 µM) | MIC in the media SLac (M. tuberculosis): 3.32 µg/mL (≈ 6.25 µM)

CN1CCN(c2ccc(C(=O)Nc3n[nH]c4ccc(Cc5cc(F)cc(F)c5)cc34)c(NC3CCOCC3)c2)CC1 [compound 774769]
MIC in the media 7H9 (M. tuberculosis): ≥ 28.03 µg/mL | MIC in the media L-Ala (M. tuberculosis): 7.01 µg/mL (≈ 12.5 µM) | MIC in the media SBA (M. tuberculosis): 3.50 µg/mL (≈ 6.24 µM) | MIC in the media SLac (M. tuberculosis): 3.50 µg/mL (≈ 6.24 µM)

C=CC(=O)Nc1cc(Nc2nccc(-c3cn(C)c4ccccc34)n2)c(OC)cc1N(C)CCN(C)C [compound 779217]
MIC in the media 7H9 (M. tuberculosis): ≥ 12.49 µg/mL | MIC in the media L-Ala (M. tuberculosis): 3.12 µg/mL (≈ 6.24 µM) | MIC in the media SBA (M. tuberculosis): 3.12 µg/mL (≈ 6.24 µM) | MIC in the media SLac (M. tuberculosis): 1.60 µg/mL (≈ 3.2 µM)

CN1CCc2cc3c(c4c2C1Cc1ccccc1-4)OCO3.Cl (centres unmarked) [compound 785164]
MIC in the media 7H9 (M. tuberculosis): ≥ 13.97 µg/mL | MIC in the media L-Ala (M. tuberculosis): 6.98 µg/mL | MIC in the media SBA (M. tuberculosis): 3.49 µg/mL | MIC in the media SLac (M. tuberculosis): 1.75 µg/mL

COc1cc2c(cc1O)C[C@H]1c3c(cc4c(c3-2)OCO4)CCN1C [compound 785178]
MIC in the media 7H9 (M. tuberculosis): ≥ 16.27 µg/mL | MIC in the media L-Ala (M. tuberculosis): 8.13 µg/mL (≈ 25 µM) | MIC in the media SBA (M. tuberculosis): 4.07 µg/mL (≈ 12.5 µM) | MIC in the media SLac (M. tuberculosis): 4.07 µg/mL (≈ 12.5 µM)

CC[C@@H](CO)NCCN[C@@H](CC)CO [ethambutol]
MIC (M. tuberculosis H37Ra; 336 h): 2 µg/mL (≈ 9.79 µM) | MIC (M. tuberculosis H37Ra): 1.6 µg/mL (≈ 7.83 µM)

CCc1cc(C(N)=S)ccn1 [ethionamide]
MIC (M. tuberculosis H37Ra): 0.5 µg/mL (≈ 3.01 µM)

NNC(=O)c1ccncc1 [isoniazid]
MIC (M. tuberculosis H37Ra; 336 h): 0.02 µg/mL (≈ 0.146 µM) | MIC (M. tuberculosis H37Ra): 0.06 µg/mL (≈ 0.438 µM)

CC(=O)NC[C@H]1CN(c2ccc(N3CCOCC3)c(F)c2)C(=O)O1 [linezolid]
MIC (M. tuberculosis H37Ra): 2 µg/mL (≈ 5.93 µM)

COc1c(N2C[C@@H]3CCCN[C@@H]3C2)c(F)cc2c(=O)c(C(=O)O)cn(C3CC3)c12 [moxifloxacin]
MIC (M. tuberculosis H37Ra): 0.25 µg/mL (≈ 0.623 µM)

CO[C@H]1/C=C/O[C@@]2(C)Oc3c(C)c(O)c4c(O)c(c(/C=N/N5CCN(C)CC5)c(O)c4c3C2=O)NC(=O)/C(C)=C\C=C\[C@H](C)[C@H](O)[C@@H](C)[C@@H](O)[C@@H](C)[C@H](OC(C)=O)[C@@H]1C [rifampin]
MIC (M. tuberculosis H37Ra; 336 h): 0.13 µg/mL (≈ 0.158 µM) | MIC (M. tuberculosis H37Ra): 0.06 µg/mL (≈ 0.0729 µM)

[H]/N=C(/N)N[C@H]1[C@H](O)[C@@H](O)[C@H](O[C@@H]2O[C@@H](C)[C@](O)(C=O)[C@H]2O[C@@H]2O[C@@H](CO)[C@H](O)[C@@H](O)[C@@H]2NC)[C@@H](N/C(N)=N\[H])[C@@H]1O [streptomycin]
MIC (M. tuberculosis H37Ra): 0.25 µg/mL (≈ 0.43 µM)
